The test has as its system Drosophila. The test is classed as in vivo. On the procedure: Fresh vials containing standard fly food supplemented with the indicated treatments were changed out every 2 days. The number of flies surviving each day was counted and log-rank tests were performed to determine statistical significance. 20 flies per treatment, n=5 (c) The climbing ability of flies treated as described in (a and bin) was assessed 4 days following initial administration of treatments. The number of flies to climb beyond 9.5 cm every 10 seconds was assessed. The percentage of flies in each treatment to cross this line was determined. The climbing ability of each treatment was normalized to the control group treated with water only. 20 flies per treatment, n=5. (d) The climbing ability of UAS-park^RNAi and ddc-GAL4>UAS-park^RNAi flies fed either paraquat or paraquat in combination with SR3677. 20 flies per treatment, n=7. (e) Proteins lysates from UAS-park^RNAi or tubulin>UAS-park^RNAi whole flies were separated by SDS-PAGE. Immunoblotting with anti-Parkin and anti-actin antibody was performed. (f) The climbing ability of TH-GAL flies fed either paraquat or paraquat in combination with SR3677. (g) Survival of heteroplasmic mt:Coll^T300l flies fed fly food supplemented with water or 2 mM SR3677 and wild-type Canton(S) flies (n=3 independent experiments). (h) The climbing ability of heteroplasmic mt:Coll^T300l flies fed either water or 2 mM SR3677 for 7 days. Log-rank tests were performed to determine p-values for survival analyses (a, b, g), *P<0.05. P-values were determined by one-tailed paired student's t-test for all climbing assays (c-e, h), *P<0.05. Data is expressed as mean±s.e.m. All error bars represent s.e.m
Male Canton(S) Drosophila were aged 7 days prior to feeding with standard fly food supplemented with water, 10 mM paraquat, 1 mM SR3677, or with combinations of these chemicals. Flies were placed into new vials containing fresh food supplemented with the treatments previously administered and 2 days later, climbing assays were performed. Flies were placed into plastic cylinder vials and tapped down, so all flies fell to the bottom. The number of flies to climb beyond 12.5 cm was counted every 10 s and values are represented as the percentage of total flies in each treatment group.

Where two headings read alike, the source gives them in different places.

In the case of `CN(C)CCOc1cc(-c2cn[nH]c2)ccc1NC(=O)[C@@H]1COc2ccccc2O1` [SR3677], the “climbing ability of paraquat-treated flies” value (Canton(S), 1 mM SR3677 with 10 mM paraquat) is reported as “restores climbing ability”. Besides, the “climbing ability with paraquat” value (TH-GAL4, UAS-rok^RNAi flies) was “No further improvement to climbing ability” and the “climbing ability with paraquat” value (UAS-park^RNAi flies) was “improved”. In addition, the paraquat-induced climbing defects entry (ddc-GAL4>UAS-park^RNAi flies) is “no improvement”.
